Assay results: US20150080475A1, “Memantine Protects Inflammation-Related Degeneration of Dopamine Neurons Through Inhibition of Over-Activated Microglia and Release of Neurotrophic Factors From Astroglia” (priority 2009, published 2015)

Experiments:
Assay type in all cases: cell-based
DA neurons = assay: LPS-induced dopaminergic neurotoxicity in microglia-depleted neuron-glia cultures; conditions: microglia depleted by LME to <1%, LPS 7 days
Method: To evaluate the influence of various kinds of glia contribute to effect of MMT on LPS-induced dopaminergic neurotoxicity, microglia-depleted Neuron-/glia Cultures were performed.

microglia = assay: OX-42 immunostaining of LPS-activated microglia in neuron-glia cultures; conditions: MMT 3 μM pretreated 30 min, twelve hours after LPS
Method: DA neurons were recognized with the polyclonal antibody against tyrosine hydroxylase (TH) and microglia was detected with the OX-42 antibody against CR3 receptor. Briefly, cells were fixed for 20 min at room temperature in 3.7% formaldehyde diluted in phosphate-buffered saline (PBS). After washing twice with PBS, the cultures were treated with 1% hydrogen peroxide for 10 min. […] To quantify cell numbers, nine representative areas per well in the 24-well plate were counted under the microscope at 100× magnification by two individuals. […]
To provide evidence of anti-inflammatory effect of MMT, the degree of inhibition of LPS-induced activation of microglia was determined by 1) morphological observation after immunostaining of microglia marker (OX-42) and 2) release of pro-inflammatory factors from activated microglia, such as extracelloualr superoxide radicals, intracellular reactive oxygen species (iROS), nitric oxide (NO), PGE2. […]

nitric oxide = assay: Nitrite assay (Griess reagent) after LPS; conditions: 24 and 48 h after LPS stimulation
Method: As an indicator of nitric oxide production, the amount of nitrite accumulated in culture supernatant was determined with a colorimetric assay using Griess reagent [1% sulfanilamide, 2.5% H3PO4, 0.1% N-(1-naphthyl)ethylenediamine dihydrochloride]. Briefly, 50 μL of Griess reagent and 50 μL of culture supernatant were incubated in the dark at room temperature for 10 min. After incubation, the absorbance at 540 nm was determined with the Spectra Max Plus microplate spectrophotometer. The sample nitrite concentration was determined from a sodium nitrite standard curve.
Neuron-glia cultures were pretreated for 30 min with MMT (3 μM) or vehicle before LPS stimulation. […] Production of superoxide (30 min after LPS) and iROS (2 h after LPS) was decreased by MMT treatment (FIGS. 6A and 6B). […] The production of PGE2 in cultures pretreated with 3 and 10 μM MMT decreased by 23% and 27% respectively (FIG. 6E).

CC12CC3CC(C)(C1)CC(N)(C3)C2.Cl [MMT, 1-amino-3,5-dimethyladamantane hydrochloride]
protective effect against LPS-induced dopaminergic neurotoxicity (DA neurons): not found in depletion of microglia
activation of OX-42 stained microglia vs LPS-treated cultures (microglia): less activated
release of NO (measured as nitrite) (nitric oxide): reduced
